Laboratory results reported in patent US20240270762A1, “PENICILLIN-BINDING PROTEIN INHIBITORS” (priority 2021, published 2024).
Converted amounts (≈) assume the structure as drawn. Read-outs that look alike come from different tables or passages of the source.

Tests used:
[1] = system: A. baumannii ATCC 19606; assay: microbe, parasite or virus in culture; format: cell-based; conditions: Acinetobacter baumannii, ATCC19606, read-out: MIC, A. baumannii ATCC 19606
[2] = system: E. coli 901C; assay: microbe, parasite or virus in culture; format: cell-based; conditions: Escherichia coli, read-out: MIC E. coli 901C
[3] = system: N. gonorrhoeae FA1090; assay: Liquid broth MIC in Fastidious broth; conditions: Neisseria gonorrhoeae
[4] = system: E. coli AG100; assay: microbe, parasite or virus in culture; format: cell-based; conditions: Escherichia coli, AG100, read-out: MIC E. coli AG100
[5] = system: N. gonorrhoeae WHO Q; assay: Liquid broth MIC in Fastidious broth; conditions: Neisseria gonorrhoeae
[6] = system: N. gonorrhoeae WHO Z; assay: Liquid broth MIC in Fastidious broth; conditions: Neisseria gonorrhoeae
[7] = system: N. gonorrhoeae WHO K; assay: Liquid broth MIC in Fastidious broth; conditions: Neisseria gonorrhoeae
[8] = system: N. gonorrhoeae WHO L; assay: Liquid broth MIC in Fastidious broth; conditions: Neisseria gonorrhoeae
[9] = biological target: T1, PBP2 from Neisseria gonorrhoeae (FA19) (Neisseria gonorrhoeae, UniProt P08149); assay: Bocillin-FL fluorescence polarization competition binding, N. gonorrhoeae PBP2; conditions: fluorescence polarization competition binding assay using Bocillin-FL, read-out: N. gonorrhoeae PBP2 Potency
T1 construct: made in house
T1 sequence (P08149 whole entry): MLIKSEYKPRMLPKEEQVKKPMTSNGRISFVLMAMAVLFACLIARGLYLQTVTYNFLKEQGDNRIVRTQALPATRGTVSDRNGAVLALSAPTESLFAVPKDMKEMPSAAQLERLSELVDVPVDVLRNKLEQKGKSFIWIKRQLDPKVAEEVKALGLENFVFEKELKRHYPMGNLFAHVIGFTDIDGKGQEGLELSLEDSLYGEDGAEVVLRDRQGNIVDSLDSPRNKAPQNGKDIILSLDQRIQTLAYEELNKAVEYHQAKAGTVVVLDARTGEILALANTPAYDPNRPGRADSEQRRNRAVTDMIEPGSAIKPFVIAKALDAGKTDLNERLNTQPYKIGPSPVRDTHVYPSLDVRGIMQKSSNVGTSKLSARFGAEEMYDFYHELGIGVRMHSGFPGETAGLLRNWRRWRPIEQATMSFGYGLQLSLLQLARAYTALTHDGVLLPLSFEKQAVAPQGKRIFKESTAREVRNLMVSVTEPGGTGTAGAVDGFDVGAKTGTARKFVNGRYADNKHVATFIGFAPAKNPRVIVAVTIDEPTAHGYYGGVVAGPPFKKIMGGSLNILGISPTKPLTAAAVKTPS
In short: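 Fluorescence polarization competition with 0.1 μM Bocillin-FL (fluorescent penicillin V) against 0.25 μM N. gonorrhoeae FA19 PBP2 in 50 mM Hepes pH 8.0, 300 mM NaCl, 10% glycerol. Boronic acid inhibitors were preincubated with PBP, then Bocillin-FL was added and FP read (490/520 nm) up to 60 min. EC50 is the concentration halving PBP-bound Bocillin-FL.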

[10] = system: K. pneumoniae UMM; assay: microbe, parasite or virus in culture; format: cell-based; conditions: Klebsiella pneumoniae, read-out: MIC K. pneumoniae UMM
[11] = system: N. gonorrhoeae ATCC 49226; assay: Liquid broth MIC in Fastidious broth; conditions: Neisseria gonorrhoeae
[12] = system: N. gonorrhoeae MS11; assay: Liquid broth MIC in Fastidious broth; conditions: Neisseria gonorrhoeae
[13] = system: N. gonorrhoeae WHO M; assay: Liquid broth MIC in Fastidious broth; conditions: Neisseria gonorrhoeae
[14] = system: P. aeruginosa ATCC 27853; assay: microbe, parasite or virus in culture; format: cell-based; conditions: Pseudomonas aeruginosa, ATCC27853, read-out: MIC P. aeruginosa ATCC 27853
[15] = system: N. gonorrhoeae CDC-0197; assay: Liquid broth MIC in Fastidious broth; conditions: Neisseria gonorrhoeae
[16] = system: N. gonorrhoeae WHO X; assay: Liquid broth MIC in Fastidious broth; conditions: Neisseria gonorrhoeae
Procedure: Liquid broth-based assays were used for antibacterial testing of PBP inhibitors in Neisseria gonorrhoeae. Briefly, cryo-preserved bacterial cultures of clinical strains were streaked for isolation on Chocolate Agar (72 g/L (2×) GC Agar Base (BD #228950) and 2% (2×) Hemoglobin was autoclaved at 121° C. for 20 minutes to sterilize. Once cooled to ˜50° C. the 2×GC Agar Base and 2× Hemoglobin solutions are combined and 1% IsoVitaleX Enrichment (BD #211876) was added to the solution). Strains were incubated at 36° C. and 5% CO2 to allow growth of colonies, 24 hours before inoculum preparation. 2-fold serial dilutions of test compounds were conducted in a 96 well plate with a final volume of 75 μL per well at 2-fold the final desired concentration in Fastidious broth (Remel #R07664). For preparation of assay inoculum, a direct suspension was prepared by aseptically swabbing 10-15 colonies from agar plates into culture tubes containing 2 mL of fresh sterile saline. After the dilution plates were set up, direct suspensions were then diluted in a cuvette containing sterile saline and the optical density was measured at 600 nm. Inocula were diluted such that 75 μL of this culture in Fastidious broth results in a starting bacterial concentration of 5×10^5 CFU/mL when added to the dilution plates. The plates were incubated for ˜24 hours at 36° C. and 5% CO2.

[17] = system: E. coli AG100A; assay: Broth microdilution MIC in CAMHB; format: cell-based; conditions: Escherichia coli, read-out: MIC E. coli AG100A
[18] = system: P. aeruginosa (ΔmexAB-oprM); assay: Broth microdilution MIC in CAMHB; format: cell-based; conditions: Pseudomonas aeruginosa; read-out: MIC P. aeruginosa ΔmexAB-oprM
[19] = FA1090, read-out: Minimum Inhibitory Concentration (MIC), N. gonorrhoeae FA 1090
[20] = read-out: Minimum Inhibitory Concentration (MIC), N. gonorrhoeae WHO Q
[21] = read-out: Minimum Inhibitory Concentration (MIC), N. gonorrhoeae WHO Z
[22] = read-out: Minimum Inhibitory Concentration (MIC), N. gonorrhoeae WHO K
[23] = read-out: Minimum Inhibitory Concentration (MIC), N. gonorrhoeae WHO L
[24] = ATCC49226, read-out: Minimum Inhibitory Concentration (MIC), N. gonorrhoeae ATCC 49226
[25] = MS11, read-out: Minimum Inhibitory Concentration (MIC), N. gonorrhoeae MS11
[26] = read-out: Minimum Inhibitory Concentration (MIC), N. gonorrhoeae WHO M
[27] = CDC0197, read-out: Minimum Inhibitory Concentration (MIC), N. gonorrhoeae CDC-0197
[28] = read-out: Minimum Inhibitory Concentration (MIC), N. gonorrhoeae WHO X
[29] = FA1090, read-out: Minimum Inhibitory Concentration, FA 1090
[30] = read-out: Minimum Inhibitory Concentration, WHO Q
[31] = read-out: Minimum Inhibitory Concentration, WHO Z
[32] = read-out: Minimum Inhibitory Concentration, WHO K
[33] = read-out: Minimum Inhibitory Concentration, WHO L
[34] = ATCC49226, read-out: Minimum Inhibitory Concentration, ATCC 49226
[35] = MS11, read-out: Minimum Inhibitory Concentration, MS11
[36] = read-out: Minimum Inhibitory Concentration, WHO M
[37] = CDC0197, read-out: Minimum Inhibitory Concentration, CDC-0197
[38] = read-out: Minimum Inhibitory Concentration, WHO X

| SMILES | MIC [3, 29] [µg/mL] | MIC [5, 30] [µg/mL] | MIC [6, 31] [µg/mL] | MIC [7, 32] [µg/mL] | MIC [8, 33] [µg/mL] | MIC [11, 34] [µg/mL] | MIC [12, 35] [µg/mL] | MIC [13, 36] [µg/mL] | MIC [15, 37] [µg/mL] | MIC [16, 38] [µg/mL] | other results |
| --- | --- | --- | --- | --- | --- | --- | --- | --- | --- | --- | --- |
| O=C(O)c1cccc2c1OB(O)[C@@H](NC(=O)C(NC(=O)N1CCN(CC(F)(F)F)C(=O)C1=O)c1ccc(P(=O)(O)O)cc1)C2 (stereo partly drawn) [Example 4, (3R)-3-(2-(2,3-dioxo-4-(2,2,2-trifluoroethyl)piperazine-1-carboxamido)-2-(4-phosphonophenyl)acetamido)-2-hydroxy-3,4-dihydro-2H-benzo[e][1,2]oxaborinine-8-carboxylic acid] | – | – | – | – | – | – | – | – | – | – | MIC [1]: > 128 µg/mL; MIC [2]: < 1 µg/mL; MIC [3, 19]: < 1 µg/mL; MIC [4]: > 128 µg/mL; MIC [5, 20]: 1 to 2 µg/mL (≈ 1.56 to 3.11 µM); MIC [6, 21]: 1 to 2 µg/mL (≈ 1.56 to 3.11 µM); MIC [7, 22]: 1 to 2 µg/mL (≈ 1.56 to 3.11 µM); MIC [8, 23]: 4 to 8 µg/mL (≈ 6.23 to 12.5 µM); EC50 [9]: < 10 µM; MIC [10]: > 128 µg/mL; MIC [11, 24]: < 1 µg/mL; MIC [12, 25]: < 1 µg/mL; MIC [13, 26]: < 1 µg/mL; MIC [14]: > 128 µg/mL; MIC [15, 27]: 1 to 2 µg/mL (≈ 1.56 to 3.11 µM); MIC [16, 28]: 4 to 8 µg/mL (≈ 6.23 to 12.5 µM); MIC [17]: 8 to 16 µg/mL (≈ 12.5 to 24.9 µM); MIC [18]: 32 to 64 µg/mL (≈ 49.8 to 99.7 µM) |
| NCCN1CCN(C(=O)NC(C(=O)N[C@H]2Cc3cccc(C(=O)O)c3OB2O)c2ccc(P(=O)(O)O)cc2)C(=O)C1=O (stereo partly drawn) [Example 3, (3R)-3-(2-(4-(2-aminoethyl)-2,3-dioxopiperazine-1-carboxamido)-2-(4-phosphonophenyl)acetamido)-2-hydroxy-3,4-dihydro-2H-benzo[e][1,2]oxaborinine-8-carboxylic acid] | – | – | – | – | – | – | – | – | – | – | MIC [1]: 32 to 64 µg/mL (≈ 53 to 106 µM); MIC [2]: 2 to 4 µg/mL (≈ 3.32 to 6.63 µM); MIC [3, 19]: < 1 µg/mL; MIC [4]: 32 to 64 µg/mL (≈ 53 to 106 µM); MIC [5, 20]: 1 to 2 µg/mL (≈ 1.66 to 3.32 µM); MIC [6, 21]: 1 to 2 µg/mL (≈ 1.66 to 3.32 µM); MIC [7, 22]: 4 to 8 µg/mL (≈ 6.63 to 13.3 µM); MIC [8, 23]: 4 to 8 µg/mL (≈ 6.63 to 13.3 µM); EC50 [9]: < 10 µM; MIC [10]: 32 to 64 µg/mL (≈ 53 to 106 µM); MIC [11, 24]: < 1 µg/mL; MIC [12, 25]: 1 to 2 µg/mL (≈ 1.66 to 3.32 µM); MIC [13, 26]: < 1 µg/mL; MIC [14]: > 128 µg/mL; MIC [15, 27]: 1 to 2 µg/mL (≈ 1.66 to 3.32 µM); MIC [16, 28]: 4 to 8 µg/mL (≈ 6.63 to 13.3 µM); MIC [17]: 8 to 16 µg/mL (≈ 13.3 to 26.5 µM); MIC [18]: 32 to 64 µg/mL (≈ 53 to 106 µM) |
| O=C(NCCCN1CCN(C(=O)NC(C(=O)N[C@H]2Cc3ccc(F)c(C(=O)O)c3OB2O)c2cc(F)c(O)c(O)c2Cl)C(=O)C1=O)c1ccncc1Cl (stereo partly drawn) [Example 295, (3R)-3-(2-(2-chloro-5-fluoro-3,4-dihydroxyphenyl)-2-(4-(3-(3-chloroisonicotinamido)propyl)-2,3-dioxopiperazine-1-carboxamido)acetamido)-7-fluoro-2-hydroxy-3,4-dihydro-2H-benzo[e][1,2]oxaborinine-8-carboxylic acid] | 1 to 2 (≈ 1.28 to 2.57 µM) | > 64 | > 64 | > 64 | > 64 | 16 to 32 (≈ 20.5 to 41.1 µM) | 16 to 32 (≈ 20.5 to 41.1 µM) | 16 to 32 (≈ 20.5 to 41.1 µM) | > 64 | > 64 | – |
| O=C(NCCCN1CCN(C(=O)N[C@@H](C(=O)N[C@H]2Cc3ccc(F)c(C(=O)O)c3OB2O)c2cc(F)c(O)c(O)c2Cl)C(=O)C1=O)c1ccncc1 [Example 294, (R)-3-((R)-2-(2-chloro-5-fluoro-3,4-dihydroxyphenyl)-2-(4-(3-(isonicotinamido)propyl)-2,3-dioxopiperazine-1-carboxamido)acetamido)-7-fluoro-2-hydroxy-3,4-dihydro-2H-benzo[e][1,2]oxaborinine-8-carboxylic acid] | 1 to 2 (≈ 1.34 to 2.69 µM) | > 64 | 16 to 32 (≈ 21.5 to 43 µM) | > 64 | > 64 | 16 to 32 (≈ 21.5 to 43 µM) | 16 to 32 (≈ 21.5 to 43 µM) | 16 to 32 (≈ 21.5 to 43 µM) | > 64 | > 64 | – |
| O=C(NCCCN1CCN(C(=O)N[C@@H](C(=O)N[C@H]2Cc3ccc(F)c(C(=O)O)c3OB2O)c2cc(F)c(O)c(O)c2Cl)C(=O)C1=O)c1cccc(O)c1Cl [Example 303, (R)-3-((R)-2-(4-(3-(2-chloro-3-hydroxybenzamido)propyl)-2,3-dioxopiperazine-1-carboxamido)-2-(2-chloro-5-fluoro-3,4-dihydroxyphenyl)acetamido)-7-fluoro-2-hydroxy-3,4-dihydro-2H-benzo[e][1,2]oxaborinine-8-carboxylic acid] | 1 to 2 (≈ 1.26 to 2.52 µM) | > 64 | 16 to 32 (≈ 20.1 to 40.3 µM) | > 64 | > 64 | 4 to 8 (≈ 5.04 to 10.1 µM) | 4 to 8 (≈ 5.04 to 10.1 µM) | 4 to 8 (≈ 5.04 to 10.1 µM) | 16 to 32 (≈ 20.1 to 40.3 µM) | > 64 | – |
| O=C(O)c1c(F)ccc2c1OB(O)[C@@H](NC(=O)C(NC(=O)N1CCN(C3CCN(C(=O)c4cccc(O)c4)CC3)C(=O)C1=O)c1cc(F)c(O)c(O)c1Cl)C2 (stereo partly drawn) [Example 293, (3R)-3-(2-(2-chloro-5-fluoro-3,4-dihydroxyphenyl)-2-(4-(1-(3-hydroxybenzoyl)piperidin-4-yl)-2,3-dioxopiperazine-1-carboxamido)acetamido)-7-fluoro-2-hydroxy-3,4-dihydro-2H-benzo[e][1,2]oxaborinine-8-carboxylic acid] | 1 to 2 (≈ 1.27 to 2.54 µM) | > 64 | > 64 | > 64 | > 64 | 16 to 32 (≈ 20.4 to 40.7 µM) | 16 to 32 (≈ 20.4 to 40.7 µM) | 16 to 32 (≈ 20.4 to 40.7 µM) | > 64 | > 64 | – |
| O=C(NCCS(=O)(=O)N1CCN(C(=O)NC(C(=O)N[C@H]2Cc3ccc(F)c(C(=O)O)c3OB2O)c2cc(F)c(O)c(O)c2Cl)C1=O)c1ccncc1 (stereo partly drawn) [Example 288, (3R)-3-(2-(2-chloro-5-fluoro-3,4-dihydroxyphenyl)-2-(3-((2-(isonicotinamido)ethyl)sulfonyl)-2-oxoimidazolidine-1-carboxamido)acetamido)-7-fluoro-2-hydroxy-3,4-dihydro-2H-benzo[e][1,2]oxaborinine-8-carboxylic acid] | 1 to 2 (≈ 1.3 to 2.61 µM) | 16 to 32 (≈ 20.9 to 41.7 µM) | 4 to 8 (≈ 5.22 to 10.4 µM) | 16 to 32 (≈ 20.9 to 41.7 µM) | > 64 | 16 to 32 (≈ 20.9 to 41.7 µM) | 4 to 8 (≈ 5.22 to 10.4 µM) | 4 to 8 (≈ 5.22 to 10.4 µM) | 16 to 32 (≈ 20.9 to 41.7 µM) | > 64 | – |
| O=C(NCCCN1CCN(C(=O)NC(C(=O)N[C@H]2Cc3ccc(F)c(C(=O)O)c3OB2O)c2cc(F)c(O)c(O)c2Cl)C(=O)C1=O)c1ccc(O)c(F)c1F (stereo partly drawn) [Example 306, (3R)-3-(2-(2-chloro-5-fluoro-3,4-dihydroxyphenyl)-2-(4-(3-(2,3-difluoro-4-hydroxybenzamido)propyl)-2,3-dioxopiperazine-1-carboxamido)acetamido)-7-fluoro-2-hydroxy-3,4-dihydro-2H-benzo[e][1,2]oxaborinine-8-carboxylic acid] | 1 to 2 (≈ 1.26 to 2.51 µM) | > 64 | > 64 | > 64 | > 64 | 16 to 32 (≈ 20.1 to 40.2 µM) | 16 to 32 (≈ 20.1 to 40.2 µM) | 16 to 32 (≈ 20.1 to 40.2 µM) | > 64 | > 64 | – |
| O=C(NCCCN1CCN(C(=O)NC(C(=O)N[C@H]2Cc3ccc(F)c(C(=O)O)c3OB2O)c2cc(F)c(O)c(O)c2Cl)C(=O)C1=O)c1ccc(O)c(Cl)c1 (stereo partly drawn) [Example 305, (3R)-3-(2-(4-(3-(3-chloro-4-hydroxybenzamido)propyl)-2,3-dioxopiperazine-1-carboxamido)-2-(2-chloro-5-fluoro-3,4-dihydroxyphenyl)acetamido)-7-fluoro-2-hydroxy-3,4-dihydro-2H-benzo[e][1,2]oxaborinine-8-carboxylic acid] | 1 to 2 (≈ 1.26 to 2.52 µM) | > 64 | > 64 | > 64 | > 64 | 16 to 32 (≈ 20.1 to 40.3 µM) | 16 to 32 (≈ 20.1 to 40.3 µM) | 16 to 32 (≈ 20.1 to 40.3 µM) | > 64 | > 64 | – |
